According to patent US20050053612A1, “Nucleotide regulation of immune responses” (priority 2003, published 2005):
Entries after “also recorded” stand apart in the source; their conditions may differ.

Assays:
[1] = system: XS106 cells; experiment: Cytokine content of supernatants by ELISA; assay type: cell-based, mouse
[2] = system: XS 106A cell
[3] = system: Langerhans cells; experiment: HDK-1 assay: antigen presentation by Langerhans cells, IFNγ by ELISA; assay type: cell-based, BALB/c mice
[4] = system: XS106
[5] = system: CAF1 mice; experiment: Tumor vaccine: delayed-type hypersensitivity to tumor-associated antigens (TAA), footpad swelling; details: mouse, in vivo
[6] = system: XS106 cells; experiment: FACS analysis of I-A, CD80 and CD86 expression; assay type: cell-based, mouse; details: for effect on ATPγS-enhanced CD80 expression: pre-incubated with 300 μM oATP for 2 hours, then GM-CSF/LPS and ATPγS
[7] = system: group A streptococcus (GAS); parameters: species or system Streptococcus pyogenes; details: in vivo
[8] = system: BALB/c mice; experiment: Contact hypersensitivity (CHS) assay, DNFB, ear swelling; details: mouse, in vivo

In the case of `Nc1ncnc2c1ncn2[C@@H]1O[C@H](COP(=O)(O)OP(=O)(O)OP(=O)(O)O)[C@@H](O)[C@H]1O` [ATP], the “secretion of IL-1β” value ([1]; ATP, significant at 10^−3 M and 10^−4 M, NS at 10^−5 M and 10^−6 M) is reported as “greatly augmented secretion” and the cell viability [2] is reported as “No effect on viability”.
For `Nc1ncnc2c1ncn2[C@@H]1O[C@H](COP(=O)(O)OP(=O)(O)OP(O)(O)=S)[C@@H](O)[C@H]1O` [ATPγS], the “release of IL-1β” value [1] was “significantly increased; also recorded: significant increase”, the “release of IL-10” value [1] was “decreasing release; also recorded: decrease” and the “release of IL-12” value [1] was “significantly increased; also recorded: significant increase”. For the same molecule, the “IFNγ release by HDK-1 cells (presentation of KLH by LCs)” value [3] was “dose-dependent increase; also recorded: augmented the ability of LCs to present KLH”, the “IFNγ, LCs incubated with ATPγS in the absence of KLH” value [3] was “only background levels; also recorded: did not significantly change the background response” and the “concentration at which the IFNγ response begins to decrease” value [3] was “greater than 10^−6 molar”. The “concentrations that induce apoptosis” value [4] was “greater than 10^−6 molar”, the “delayed-type hypersensitivity (DTH) response, footpad swelling” value [5] was “significantly enhanced; also recorded: significantly greater DTH response” and the “expression of CD80” value [6] was “enhanced; also recorded: enhances expression”. For the same molecule, the “expression of CD86” value [6] was “enhanced; also recorded: enhances expression”, the “expression of I-A” value [6] was “enhanced; also recorded: enhances expression” and the “lesion size vs mice immunized with killed GAS alone” value [7] was “much smaller lesions”. The “mean areas of the lesions” value [7] was 2.80±1.11 mm^2, the “ear swelling (contact hypersensitivity response)” value [8] was “significantly augmented; also recorded: greatest ear swelling; also recorded: increased response upon challenge” and the “ear swelling (contact hypersensitivity response), ATPγS injected at a site distant from that of immunization” value [8] was “no effect on the response”. The “ear swelling, ATPγS only (not immunized with DNFB)” value [8] was “least ear swelling”.
With `Nc1ncnc2c1ncn2[C@@H](C=O)O[C@@H](C=O)COP(=O)(O)OP(=O)(O)OP(=O)(O)O` [oxidized ATP, reference compound] the “effect on ATPγS-induced IL-1β secretion” value ([1]; data not shown) was “significantly inhibited”, the “effect on ATPγS-enhanced CD80 expression” value [6] was “inhibits the effect of ATPγS on CD80 expression” and the “effect on ATPγS-enhanced CD80 expression” value ([6]; listed as oATP) was “inhibited”.
